This is an account of results in patent US5512573A, “Use of phthaloylhydrazide derivatives as anti-hypoxic and defensive agents” (priority 1993, dated 1996).

Where a name gives a salt, the structure may show the parent alone.

In data set [1] the test system is brain ischemia (carotid tying) in mice. Kind of data set: Example 4: carotid tying and release in mice. The format is in vivo. As to conditions: control mortality 50%. The protocol:
We performed experiments on 50 mice of the pyramid by tying the carotid under light anesthesia. After 7 minutes, we released the tie and restored the blood circulation in the ischemic area.

The test system of data set [2] is myocardial ischemia in rats. Kind of data set: Example 3: myocardial ischemia with restored circulation in rats. The format is in vivo. The protocol: Experiments were performed on 60 previously prepared rats. Thirty days before the start of the main experiment, a part of the coronary artery was tied off.
Next, after having supplied light anesthesia, we created by means of the obstruction of the vessel a massive hearth of myocardial ischemia.
We administered the sodium salt intravenously in doses of 30, 100, 200 and 250 mg per kilogram of body weight, immediately after having released the tie. In the control group, the rats were administered a physiological solution, while the test group was given the antioxidant Dibunolo (20% oily solution in a dose of 30 mg/kg).

Another data set deals with hypoxia in mice. Briefly: Example 1: resistance of mice to hypoxia (altitude of 10,400 meters). As to conditions: control 41±2.5, sodium salt at 60 to 80 mg/kg. Type of data set: in vivo. The method, then: We assessed the pharmacological activity on the basis of the resistance of the animals to hypoxia. […] We administered the drug intravenously in doses of 10 to 300 mg, in 0.1 ml of physiological solution. In some cases, because of poor solubility, we injected the derivatives in the form of suspensions. The control animals received 0.1 ml of physiological solution.

Data set [3] is described as follows: Summary of experiments on phthaloylhydrazide derivatives. The format is in vivo. Conditions: for pharmacological activity, anti-hypoxic and defensive action: doses of 10 to 300 mg/kg.
Data set [4] has as its system ethane and pentane contents of the air inhaled by the animals. As to conditions: change in ethane and pentane contents.
The next data set deals with leukocytes. Conditions: in vivo.
In data set [5] the test system is leukocytes in ischemic tissue; surviving animals.
The next data set deals with Sprague-Dawley rats. As to conditions: use to decrease serum cholesterol levels; cited from earlier work.
Where [6] appears, read: morphological analysis, test group.

Consider `Cc1cc(C(C)(C)C)c(O)c(C(C)(C)C)c1` [Dibunolo, reference compound], for which the prevention of mortality result in [1] was “not entirely prevented”. Moreover, the survival rate result in data set [2] (Dibunolo 20% oily solution, 30 mg/kg, p>0.05) is on record as “tendency toward rising survival rates of the animals, but the results obtained were not reliable”.

Regarding dimethyldiaminophthaloylhydrazide, the “life span of the animals” value with hypoxia in mice stood at 89 ± 12 s.

For “4-methyl-4,5-diamino-2,3 dihydrophthalazine-1,2 dione”, the “pharmacological activity, anti-hypoxic and defensive action” value (from here on “pharmacological activity”) in data set [3] is “possess a pronounced pharmacological activity”.

With `Nc1cccc2c(=O)[nH][nH]c(=O)c12` [sodium salt of 5-aminophthaloylhydrazide, sodium salt of 5-amino-2,3-dihydrophthalazine-1,2 dione], the “antioxidant action in vivo” value in data set [4] was “antioxidant action in vivo”. Besides, in the data set with hypoxia (60 to 80 mg), the “anti-hypoxic activity vs antioxidants (Dibunolo, histidine, Organeia, etc.)” value is given as “exceeds that of antioxidants used thus far in medical practice”. For the same compound, the “anti-hypoxic effect on further dose increase” value in the data set with hypoxia (beyond 100 mg/kg) was “the effect does not basically increase”. The “adhesion capacity of the leukocytes” value in the data set with leukocytes is “drop in the adhesion capacity of the leukocytes”. In addition, the “life span of the animals” value in the data set with hypoxia in mice amounted to 222 ± 45 s. Moreover, in [5] (experimental group, intravenous, p<0.01), the “percentage of surviving animals” value is recorded as 80%. The “increase of leukocyte levels in the blood” value in data set [5] (one time i.v. 150 to 250 mg/kg) stood at 2.5 times. For the same compound, the “previously penetrated leukocytes eliminated” value in data set [5] (one time i.v. 150 to 250 mg/kg, after 6 hours) is given as 75%. Further, in [2] (30 mg/kg i.v.), the “signs of a therapeutic effect” value was “clear signs of a therapeutic effect”. In addition, the prevention of death result in data set [2] (30 mg/kg i.v., p>0.05) is “did not prevent the death of the animals”. The “number of surviving animals” value in data set [2] (100 mg/kg and beyond, i.v., p<0.01-0.001) is given as “increase in the number of surviving animals”. Further, in data set [2] (setting [6]), the “damaged area of myocardium” value was “the damaged area could not be perceived visually”; the “necrotic hearths in myocardium” value is “The tiny necrotic hearths were few and diffused”.

`N[C@@H](Cc1c[nH]cn1)C(=O)O` [histidine, reference compound]: the prevention of mortality result in data set [1] is listed as “not entirely prevented”.

As to `O=c1[nH][nH]c(=O)c2ccccc12` [Phthaloylhydrazide, 2,3 dihydrophthalazine-1,4 dione], in the data set on Sprague-Dawley rats, the toxicity entry was “certain signs of toxicity”. Moreover, the “pharmacological activity” value in [3] is “possess a pronounced pharmacological activity”.

For “4,5-amino-2,3- dihydrophthalazine-1,2 dione [4,5-aminophthaloylhydrazide]”, the “pharmacological activity” value in [3] is “possess a pronounced pharmacological activity”.

Turning to `Nc1ccc2c(=O)[nH][nH]c(=O)c2c1` [4-aminophthaloylhydrazide], the therapeutic effects result in data set [3] (in vivo) is listed as “major therapeutic effects”.
